Among the test systems are 786-0 renal; MALME-3M melanoma; NCI-H226 lung; RPMI-8226 leukemia; RXF 393 renal; SK-MEL-28 melanoma; SK-OV-3 ovarian; SW-620 colon; U251 CNS; UACC-257 melanoma; UACC-62 melanoma; UO-31 renal.
Experiment in all cases: NCI tumour cell line growth inhibition, 48 h

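Following 48 hours of exposure in 96-well plates, responses at five concentrations were used to interpolate endpoints linearly. Abbreviation: GI50, concentration required for 50% inhibition of growth. At the TGI there is no net growth.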

On to `CC1=NN2CCC(=O)N=C2S1`, for which the TGI in the test with 786-0 renal, with MALME-3M melanoma, in the test on NCI-H226 lung, in the test on RPMI-8226 leukemia, in the test on RXF 393 renal and in the test with SK-MEL-28 melanoma was greater than 100 µM throughout. The TGI with SK-OV-3 ovarian, with SW-620 colon, in the test on U251 CNS, in the test with UACC-257 melanoma and in the test on UACC-62 melanoma was greater than 100 µM in each case.

In the case of `Nc1ncc2c(n1)-c1ccccc1OC2`, the TGI with MALME-3M melanoma, in the test on NCI-H226 lung, in the test with RPMI-8226 leukemia, with RXF 393 renal, with SK-MEL-28 melanoma and with SK-OV-3 ovarian was greater than 100 µM throughout. For the same compound, the TGI in the test with SW-620 colon, in the test with U251 CNS, in the test with UACC-257 melanoma, in the test on UACC-62 melanoma and with UO-31 renal was greater than 100 µM each time.

For `CCOC(=O)C1=C(C)N(Cc2ccccc2)C2(O)C(OC)CC(=O)C3C(=O)N(c4ccccc4)C(=O)C132` (centres undefined), the TGI was greater than 100 µM in the test on 786-0 renal; 36.7 µM in the test on MALME-3M melanoma; 37.5 µM with NCI-H226 lung; greater than 100 µM in the test on RPMI-8226 leukemia; 94.1 µM in the test on RXF 393 renal; 23.3 µM with SK-MEL-28 melanoma. Besides, the TGI with SW-620 colon is greater than 100 µM; with U251 CNS it was greater than 100 µM; in the test on UACC-257 melanoma, 37.7 µM; with UACC-62 melanoma, 21.6 µM; in the test on UO-31 renal, 33 µM.

On to `N=C(N)c1ccc(-c2ccc(-c3ccc(Cl)cc3Cl)s2)nc1`, for which the GI50 in the test with MALME-3M melanoma was 1.71 µM; in the test on NCI-H226 lung, 5.02 µM; in the test with RPMI-8226 leukemia it was 2.32 µM; in the test with RXF 393 renal, 1.67 µM; in the test with SK-MEL-28 melanoma it was 1.76 µM; with SK-OV-3 ovarian it was 8 µM. The GI50 in the test on UACC-62 melanoma was 1.9 µM; in the test on UO-31 renal, 1.57 µM. Also, the TGI stood at 3.23 µM in the test on MALME-3M melanoma; 28.4 µM with NCI-H226 lung; 5.42 µM in the test with RPMI-8226 leukemia; 3.06 µM in the test with RXF 393 renal; 3.28 µM in the test with SK-MEL-28 melanoma; 25.6 µM in the test on SK-OV-3 ovarian. Moreover, the TGI with UACC-62 melanoma was 3.65 µM; in the test on UO-31 renal, 2.93 µM.

For the compound `CCCCCCCCCCCCCCCCCCNc1nc(=O)n(C2CC(OP(=O)(O)OCC3OC(n4cc(F)c(=O)[nH]c4=O)CC3O)C(CO)O2)cc1F` (centres undefined), the TGI in the test on 786-0 renal was greater than 100 µM; in the test on NCI-H226 lung, greater than 100 µM; in the test on RPMI-8226 leukemia it was 49.7 µM; in the test on RXF 393 renal it was 63 µM; with SK-MEL-28 melanoma, greater than 100 µM; with SK-OV-3 ovarian, greater than 100 µM. For the same compound, the TGI in the test on SW-620 colon is greater than 100 µM; in the test with U251 CNS it was 65.2 µM; in the test with UACC-257 melanoma, greater than 100 µM; in the test with UACC-62 melanoma, 51.1 µM; in the test on UO-31 renal, 44.2 µM.

As for `CC(C)N1[C@@H]2CCCC[C@H]2N(C(C)C)[P+]1=O`, the TGI with 786-0 renal, in the test on NCI-H226 lung, in the test on RPMI-8226 leukemia, in the test with RXF 393 renal, in the test on SK-OV-3 ovarian and with SW-620 colon was greater than 100 µM each time. For the same compound, the TGI with UACC-257 melanoma, with UACC-62 melanoma and in the test on UO-31 renal was greater than 100 µM in each case.

Take `O=[N+]([O-])c1ccc(Nc2cccc3c2[nH]c2c(-c4ccccc4)nccc23)c([N+](=O)[O-])c1`: the TGI in the test on MALME-3M melanoma, in the test on NCI-H226 lung, in the test on RPMI-8226 leukemia, in the test with RXF 393 renal, with SK-MEL-28 melanoma and in the test with SK-OV-3 ovarian was greater than 100 µM in each case. Further, the TGI in the test on SW-620 colon, in the test with U251 CNS, with UACC-257 melanoma, in the test on UACC-62 melanoma and with UO-31 renal was greater than 100 µM each time.

Turning to `O=S(=O)(O)c1cc(N=[N+]([O-])c2ccc(N=Nc3ccccc3)cc2S(=O)(=O)O)ccc1/C=C/c1ccc(N=[N+]([O-])c2ccc(N=Nc3ccccc3)cc2S(=O)(=O)O)cc1S(=O)(=O)O`, the TGI with MALME-3M melanoma, with NCI-H226 lung, in the test with RPMI-8226 leukemia, with RXF 393 renal, with SK-MEL-28 melanoma and in the test with SK-OV-3 ovarian was greater than 100 µM throughout. The TGI in the test on SW-620 colon, in the test on U251 CNS, in the test on UACC-257 melanoma, in the test with UACC-62 melanoma and with UO-31 renal was greater than 100 µM throughout.

In the case of `CC1=NN(c2nc(N)nc(-c3cc4ccccc4oc3=N)n2)C(C)(C)C1`, the TGI stood at 29.8 µM in the test with 786-0 renal; 32.2 µM in the test on MALME-3M melanoma; 30.4 µM in the test on NCI-H226 lung; 42.6 µM with RPMI-8226 leukemia; 43.5 µM in the test on RXF 393 renal; 30.5 µM with SK-MEL-28 melanoma. In addition, the TGI in the test with SK-OV-3 ovarian came out at 34.7 µM; with U251 CNS, 76.8 µM; in the test on UACC-257 melanoma, 31.4 µM; in the test on UACC-62 melanoma it was 34.1 µM; in the test on UO-31 renal, 37.4 µM.

As to `CCOC(=O)C1CCCN1C(=O)c1ccccc1Cl` (centres undefined), the TGI in the test with 786-0 renal, in the test with MALME-3M melanoma, with NCI-H226 lung, in the test with RPMI-8226 leukemia, in the test on RXF 393 renal and with SK-MEL-28 melanoma was greater than 100 µM each time. Also, the TGI is greater than 100 µM with SW-620 colon; greater than 100 µM with U251 CNS; greater than 100 µM in the test with UACC-257 melanoma; 88.3 µM in the test with UACC-62 melanoma; greater than 100 µM with UO-31 renal.

As to `COc1cccc(N(CN2C(=O)CCC2OC)C(C)=O)c1` (centres undefined), the TGI with 786-0 renal, with NCI-H226 lung, in the test on RPMI-8226 leukemia, in the test with RXF 393 renal, with SK-MEL-28 melanoma and with SK-OV-3 ovarian was greater than 100 µM in each case. Besides, the TGI in the test on SW-620 colon, with U251 CNS, in the test with UACC-257 melanoma, in the test on UACC-62 melanoma and in the test on UO-31 renal was greater than 100 µM each time.

As to `Cc1ccc([N+]2=NC(c3ccccc3)=NN(c3ccccc3)C2)cc1`, the TGI in the test with 786-0 renal, with MALME-3M melanoma, with NCI-H226 lung, with RPMI-8226 leukemia, with RXF 393 renal and in the test with SK-MEL-28 melanoma was greater than 100 µM in each case. Besides, the TGI with SW-620 colon, in the test on U251 CNS, in the test with UACC-257 melanoma and in the test on UO-31 renal was greater than 100 µM each time.

For the origin of these results see PubChem BioAssay (NCI).
